The source of these data is PMC7406541, “Vectorial transport of the arginine derivatives asymmetric dimethylarginine (ADMA) and L-homoarginine by OATP4C1 and P-glycoprotein studied in double-transfected MDCK cells” (Amino Acids, 2020).

Details of data set [1]: method as in Kielstein et al. [2009]. As to conditions: ref Kielstein et al. [2009]; cited from earlier work.
The test system of a further data set is human OATP4C1. As to the kind of experiment: Transcellular basal to apical (vectorial) transport across MDCK-OATP4C1 cell monolayers. The note with it: 1 h incubation.
For a further data set, the system named is MDCK-VC cells. Kind of data set: Transcellular basal to apical transport across MDCK-VC control cell monolayers. It counts as in vitro ADME. The note with it: 1 µM, 1 h.
The target in the next data set is human P-gp (Homo sapiens, UniProt P08183). Kind of data set: Transcellular basal to apical (vectorial) transport across MDCK-P-gp cell monolayers. The note with it: for Average ratio of vectorial transport (relative to MDCK-VC cells): MDCK-P-gp, 1 h incubation.
human P-gp, sequence (P08183 whole entry): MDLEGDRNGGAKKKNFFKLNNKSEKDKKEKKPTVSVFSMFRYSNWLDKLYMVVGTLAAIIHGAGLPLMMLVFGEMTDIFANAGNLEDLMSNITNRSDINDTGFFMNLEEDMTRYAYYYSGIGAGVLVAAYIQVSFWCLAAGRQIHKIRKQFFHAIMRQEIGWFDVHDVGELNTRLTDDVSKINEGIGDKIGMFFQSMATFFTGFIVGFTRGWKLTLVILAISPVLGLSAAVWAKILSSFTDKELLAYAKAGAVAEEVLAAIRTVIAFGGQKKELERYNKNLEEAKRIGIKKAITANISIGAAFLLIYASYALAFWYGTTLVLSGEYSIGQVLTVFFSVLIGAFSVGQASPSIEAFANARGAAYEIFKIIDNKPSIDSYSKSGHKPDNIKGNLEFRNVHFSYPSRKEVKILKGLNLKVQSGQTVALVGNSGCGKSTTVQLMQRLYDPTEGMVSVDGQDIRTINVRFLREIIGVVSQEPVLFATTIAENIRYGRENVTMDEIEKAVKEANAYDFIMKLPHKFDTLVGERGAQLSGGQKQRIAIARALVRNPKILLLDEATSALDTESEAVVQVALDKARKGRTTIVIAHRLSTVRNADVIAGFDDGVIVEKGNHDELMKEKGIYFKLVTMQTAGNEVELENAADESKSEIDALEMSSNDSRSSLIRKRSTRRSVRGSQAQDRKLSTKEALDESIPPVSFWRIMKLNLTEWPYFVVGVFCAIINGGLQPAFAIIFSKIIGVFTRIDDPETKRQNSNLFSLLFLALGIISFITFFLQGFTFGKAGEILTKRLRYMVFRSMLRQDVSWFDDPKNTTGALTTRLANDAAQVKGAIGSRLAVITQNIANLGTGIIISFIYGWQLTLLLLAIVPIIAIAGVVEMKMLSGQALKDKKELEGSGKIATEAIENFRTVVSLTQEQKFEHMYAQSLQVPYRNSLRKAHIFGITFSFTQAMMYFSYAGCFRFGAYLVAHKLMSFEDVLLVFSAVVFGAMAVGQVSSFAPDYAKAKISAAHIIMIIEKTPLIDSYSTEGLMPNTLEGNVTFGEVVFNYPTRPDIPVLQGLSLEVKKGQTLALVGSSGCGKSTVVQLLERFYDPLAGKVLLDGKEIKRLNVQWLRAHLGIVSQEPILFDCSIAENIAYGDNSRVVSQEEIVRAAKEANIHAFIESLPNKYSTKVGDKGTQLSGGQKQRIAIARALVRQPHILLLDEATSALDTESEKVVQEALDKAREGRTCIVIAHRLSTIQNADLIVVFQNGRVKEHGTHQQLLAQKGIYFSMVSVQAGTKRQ
Data set [2] has as its system human OATP4C1 and human P-gp. As to the kind of experiment: Transcellular basal to apical (vectorial) transport across double-transfected MDCK-OATP4C1-P-gp cell monolayers. The note with it: for Time-dependent transcellular transport in MDCK-OATP4C1-P-gp cells compared to the other tested cell lines: all time points 1, 2, 3 and 4 h; for Transport ratio MDCK-OATP4C1-P-gp/MDCK-VC: 50 µM, basolateral to apical; for Average ratio of vectorial transport (relative to MDCK-VC cells): MDCK-OATP4C1-P-gp, 1 h incubation.

Another data set concerns CAT1. Details: method as in Chafai et al. [2017]. The note with it: ref Chafai et al. [2017]; read-out: Km value for CAT1-mediated uptake; cited from earlier work.
In another data set the test system is OATP4C1. Also noted: method as in Taghikhani et al. [2019]. As to conditions: ref Taghikhani et al. [2019]; read-out: Km value as substrate of OATP4C1; cited from earlier work.

Procedure for MDCK-VC cells: Transcellular transport in MDCK-OATP4C1-P-gp double-transfectants and respective MDCK-OATP4C1 and MDCK-P-gp single-transfectants as well as in the MDCK-VC control cell line was analyzed as previously described (Taghikhani et al. [2017]). Cells were cultured in Transwell membrane inserts (14 mm diameter, 0.4 µm pore size; Greiner Bio-One, Frickenhausen, Germany) in an initial density of 5 × 10^5 cells/well. Cells were cultivated at 37 °C for 48 h before inducing them by replacing the medium with fresh medium containing 10 mM of sodium butyrate. After 24 h of further incubation, cells were used for transcellular transport studies.
To study the transcellular transport, cells were washed with pre-warmed (37 °C) uptake buffer applied to both the basolateral and apical compartment. […] After incubating the cells for stated time points, the amount of radioactivity on the apical compartment was measured by liquid scintillation counting.
Concentration dependency of transcellular transport of ADMA and L-homoarginine was studied by applying the respective compound in concentrations of 1, 20, 50 and 100 µM on the basolateral compartment of MDCK transfectants. […] Cells were lysed and the cellular protein content was quantified as described. 400 µl (or 80 µl for time-dependency analysis) of the applied donor solutions were also analyzed by scintillation counting as reference. […]

As to `CN(C)C(N)=NCCC[C@H](N)C(=O)O` [ADMA, asymmetric dimethylarginine], the “Share excreted unchanged into urine” value in data set [1] was 20%. Besides, in data set [1], the “Share taken up into proximal tubule cells that is metabolized (e.g. by DDAH1)” value is around 80%. Besides, the “Average ratio of vectorial transport (relative to MDCK-VC cells)” value (“Average ratio … (relative to MDCK-VC cells)” below) with human OATP4C1 (1 µM basal) is on record as 1.17; in the data set on human OATP4C1 (20 µM basal) it was 1.19; in the data set on human OATP4C1 (50 µM basal) it was 1.14; with human OATP4C1 (100 µM basal), 1.20; at human P-gp (1 µM basal) it was 1.10; at human P-gp (20 µM basal), 1.19. Besides, the “Average ratio … (relative to MDCK-VC cells)” value at human P-gp (50 µM basal) is listed as 1.20; on human P-gp (100 µM basal) it was 1.30; in data set [2] (1 µM basal), 1.92; in data set [2] (20 µM basal), 1.87; in data set [2] (50 µM basal) it was 2.00; in data set [2] (100 µM basal), 1.83. Besides, the Transcellular transport rate is 4.8 ± 0.4 pmol × mg protein^−1 × min^−1 in the data set with MDCK-VC cells and 9.2 ± 1.2 pmol × mg protein^−1 × min^−1 in data set [2] (MDCK-OATP4C1-P-gp cells, 1 µM, basal to apical, 1 h). In data set [2] (1 µM, 1 h), the “Transport ratio MDCK-OATP4C1-P-gp vs MDCK-VC” value was found to be 1.92 fold. In addition, the “Time-dependent transcellular transport in MDCK-OATP4C1-P-gp cells compared to the other tested cell lines” value in data set [2] (1 µM) is recorded as “significantly higher”. In addition, the “Transport ratio MDCK-OATP4C1-P-gp/MDCK-VC” value in data set [2] turned out to be 2.0 fold.
As to `NC(N)=NCCCC[C@H](N)C(=O)O` [L-homoarginine], the Km (usually the substrate concentration at which the rate is half of its maximum) in the data set on CAT1 is 175 µM; with OATP4C1 it was 49.9 µM. The “Average ratio … (relative to MDCK-VC cells)” value in the data set on human OATP4C1 (1 µM basal) is recorded as 1.33; in the data set with human OATP4C1 (20 µM basal), 1.92; in the data set with human OATP4C1 (50 µM basal), 2.09; in the data set on human OATP4C1 (100 µM basal), 2.31; on human P-gp (1 µM basal), 1.11; on human P-gp (20 µM basal) it was 1.61. The “Average ratio … (relative to MDCK-VC cells)” value at human P-gp (50 µM basal) is on record as 1.45; on human P-gp (100 µM basal), 1.43; in data set [2] (1 µM basal), 3.44; in data set [2] (20 µM basal) it was 3.94; in data set [2] (50 µM basal), 3.41; in data set [2] (100 µM basal), 6.65. Moreover, the “Time-dependent transcellular transport in MDCK-OATP4C1-P-gp cells compared to the other tested cell lines” value in data set [2] (1 µM) was “significantly higher”. Besides, the “Transport ratio MDCK-OATP4C1-P-gp/MDCK-VC” value in data set [2] is on record as 3.4 fold.
Regarding `C[C@H]1O[C@@H](O[C@H]2[C@@H](O)C[C@H](O[C@H]3[C@@H](O)C[C@H](O[C@H]4CC[C@@]5(C)[C@H](CC[C@@H]6[C@@H]5C[C@@H](O)[C@]5(C)[C@@H](C7=CC(=O)OC7)CC[C@]65O)C4)O[C@@H]3C)O[C@@H]2C)C[C@H](O)[C@@H]1O` [digoxin, reference compound], the “Transcellular transport in MDCK-P-gp in comparison to MDCK-VC” value on human P-gp (5 µM, incubation time 1 h) is 1.7 fold.
